Results: ChEMBL document CHEMBL1275577, “Study of the in vitro activities of rifaximin and comparator agents against 536 anaerobic intestinal bacteria from the perspective of potential utility in pathology involving bowel flora” (Antimicrob Agents Chemother, 2009)
Values after ≈ are worked out from the molar mass of the structure shown.

How the values were obtained:
Type in all cases: functional
[1] = system: Parabacteroides distasonis; assay: Antimicrobial activity against Parabacteroides distasonis by Wadsworth agar dilution method
Bacteroides ovatus = assay: Antimicrobial activity against Bacteroides ovatus by Wadsworth agar dilution method
[2] = system: Bacteroides thetaiotaomicron; assay: Antimicrobial activity against Bacteroides thetaiotaomicron by Wadsworth agar dilution method
Bacteroides nordii = assay: Antimicrobial activity against Bacteroides nordii by Wadsworth agar dilution method
Bacteroides stercoris = assay: Antimicrobial activity against Bacteroides stercoris by Wadsworth agar dilution method
Bacteroides uniformis = assay: Antimicrobial activity against Bacteroides uniformis by Wadsworth agar dilution method
Bilophila wadsworthia = assay: Antimicrobial activity against Bilophila wadsworthia by Wadsworth agar dilution method in presence of 1% pyruvic acid
[3] = system: Desulfovibrio desulfuricans; assay: Antimicrobial activity against Desulfovibrio desulfuricans by Wadsworth agar dilution method
Desulfovibrio piger = assay: Antimicrobial activity against Desulfovibrio piger by Wadsworth agar dilution method
Desulfovibrio vulgaris = assay: Antimicrobial activity against Desulfovibrio vulgaris by Wadsworth agar dilution method; details: Nitratidesulfovibrio vulgaris
Fusobacterium nucleatum = assay: Antimicrobial activity against Fusobacterium nucleatum by Wadsworth agar dilution method
Fusobacterium varium = assay: Antimicrobial activity against Fusobacterium varium by Wadsworth agar dilution method
Fusobacterium sp. = assay: Antimicrobial activity against Fusobacterium sp. by Wadsworth agar dilution method
Porphyromonas = assay: Antimicrobial activity against Porphyromonas sp. by Wadsworth agar dilution method
Porphyromonas uenonis = assay: Antimicrobial activity against Porphyromonas uenonis by Wadsworth agar dilution method
Prevotella corporis = assay: Antimicrobial activity against Prevotella corporis by Wadsworth agar dilution method
[4] = system: Enterocloster clostridioformis; assay: Antimicrobial activity against Clostridium clostridioforme by Wadsworth agar dilution method
[5] = system: Clostridium acetobutylicum; assay: Antimicrobial activity against Clostridium acetobutylicum by Wadsworth agar dilution method
Clostridium beijerinckii = assay: Antimicrobial activity against Clostridium beijerinckii by Wadsworth agar dilution method
Clostridium butyricum = assay: Antimicrobial activity against Clostridium butyricum by Wadsworth agar dilution method
Clostridium cadaveris = assay: Antimicrobial activity against Clostridium cadaveris by Wadsworth agar dilution method
Clostridium disporicum = assay: Antimicrobial activity against Clostridium disporicum by Wadsworth agar dilution method
Clostridium fallax = assay: Antimicrobial activity against Clostridium fallax by Wadsworth agar dilution method
Tissierella praeacuta = assay: Antimicrobial activity against Clostridium hastiforme by Wadsworth agar dilution method
[6] = system: Clostridium lactatifermentans; assay: Antimicrobial activity against Clostridium lactatifermentans by Wadsworth agar dilution method; details: Anaerotignum lactatifermentans
Clostridium scindens = assay: Antimicrobial activity against Clostridium scindens by Wadsworth agar dilution method
Clostridium sp. = assay: Antimicrobial activity against Clostridium sp. by Wadsworth agar dilution method
Clostridium spiroforme = assay: Antimicrobial activity against Clostridium spiroforme by Wadsworth agar dilution method; details: Thomasclavelia spiroformis
Clostridium sporogenes = assay: Antimicrobial activity against Clostridium sporogenes by Wadsworth agar dilution method
Clostridium subterminale = assay: Antimicrobial activity against Clostridium subterminale by Wadsworth agar dilution method
Clostridium symbiosum = assay: Antimicrobial activity against Clostridium symbiosum by Wadsworth agar dilution method
Clostridium tertium = assay: Antimicrobial activity against Clostridium tertium by Wadsworth agar dilution method
Schaalia meyeri = assay: Antimicrobial activity against Actinomyces meyeri by Wadsworth agar dilution method
Actinomyces viscosus = assay: Antimicrobial activity against Actinomyces viscosus by Wadsworth agar dilution method
Bifidobacterium breve = assay: Antimicrobial activity against Bifidobacterium breve by Wadsworth agar dilution method
Bifidobacterium dentium = assay: Antimicrobial activity against Bifidobacterium dentium by Wadsworth agar dilution method
[7] = system: Catenibacterium mitsuokai; assay: Antimicrobial activity against Catenibacterium mitsuokai by Wadsworth agar dilution method
[8] = system: Coprobacillus cateniformis; assay: Antimicrobial activity against Coprobacillus cateniformis by Wadsworth agar dilution method
Eggerthella lenta = assay: Antimicrobial activity against Eggerthella lenta by Wadsworth agar dilution method
Eubacterium callanderi = assay: Antimicrobial activity against Eubacterium callanderi by Wadsworth agar dilution method
Eubacterium limosum = assay: Antimicrobial activity against Eubacterium limosum by Wadsworth agar dilution method
Eubacterium saburreum = assay: Antimicrobial activity against Eubacterium saburreum by Wadsworth agar dilution method; details: Lachnoanaerobaculum saburreum
[9] = system: Lactobacillus acidophilus; assay: Antimicrobial activity against Lactobacillus acidophilus by Wadsworth agar dilution method
[10] = system: Lactobacillus catenaformis; assay: Antimicrobial activity against Lactobacillus catenaformis by Wadsworth agar dilution method; details: Eggerthia catenaformis
[11] = system: Peptoniphilus asaccharolyticus; assay: Antimicrobial activity against Peptoniphilus asaccharolyticus by Wadsworth agar dilution method
Ruminococcus gnavus = assay: Antimicrobial activity against Ruminococcus gnavus by Wadsworth agar dilution method; details: Mediterraneibacter gnavus
Ruminococcus lactaris = assay: Antimicrobial activity against Ruminococcus lactaris by Wadsworth agar dilution method

Q: How did the MIC50 [1] turn out when `NC[C@@H]1O[C@H](O[C@H]2[C@@H](O)[C@H](O[C@@H]3[C@@H](O)[C@H](N)C[C@H](N)[C@H]3O[C@H]3O[C@H](CN)[C@@H](O)[C@H](O)[C@H]3N)O[C@@H]2CO)[C@H](N)[C@@H](O)[C@@H]1O` [FRAMYCETIN] was run?
A: 1020 µg/mL (≈ 1670 µM)

Q: And the MIC90 [1]?
A: > 1020 µg/mL

Q: What about the MIC50 (Bacteroides ovatus) of the same compound?
A: > 1020 µg/mL

Q: What about the MIC90 (Bacteroides ovatus) of the same compound?
A: > 1020 µg/mL

Q: And the MIC50 [2]?
A: > 1020 µg/mL

Q: What about the MIC90 [2] of the same compound?
A: > 1020 µg/mL

Q: What about the MIC50 (Bacteroides nordii) of the same compound?
A: > 1020 µg/mL

Q: What about the MIC90 (Bacteroides nordii) of the same compound?
A: > 1020 µg/mL

Q: What about the MIC50 (Bacteroides stercoris) of the same compound?
A: > 1020 µg/mL

Q: And the MIC90 (Bacteroides stercoris)?
A: > 1020 µg/mL

Q: And the MIC50 (Bacteroides uniformis)?
A: > 1020 µg/mL

Q: And the MIC90 (Bacteroides uniformis)?
A: > 1020 µg/mL

Q: And the MIC50 (Bilophila wadsworthia)?
A: > 1020 µg/mL

Q: And the MIC90 (Bilophila wadsworthia)?
A: > 1020 µg/mL

Q: And the MIC [3]?
A: > 1020 µg/mL

Q: What about the MIC50 [3] of the same compound?
A: > 1020 µg/mL

Q: And the MIC90 [3]?
A: > 1020 µg/mL

Q: And the MIC50 (Desulfovibrio piger)?
A: 256 µg/mL (≈ 416 µM)

Q: And the MIC90 (Desulfovibrio piger)?
A: 1020 µg/mL (≈ 1670 µM)

Q: And the MIC50 (Desulfovibrio vulgaris)?
A: 256 µg/mL (≈ 416 µM)

Q: And the MIC90 (Desulfovibrio vulgaris)?
A: 1020 µg/mL (≈ 1670 µM)

Q: And the MIC50 (Fusobacterium nucleatum)?
A: 1020 µg/mL (≈ 1670 µM)

Q: What about the MIC90 (Fusobacterium nucleatum) of the same compound?
A: 1020 µg/mL (≈ 1670 µM)

Q: And the MIC50 (Fusobacterium varium)?
A: 512 µg/mL (≈ 833 µM)

Q: What about the MIC90 (Fusobacterium varium) of the same compound?
A: > 1020 µg/mL

Q: What about the MIC50 (Fusobacterium sp.) of the same compound?
A: 512 µg/mL (≈ 833 µM)

Q: And the MIC90 (Fusobacterium sp.)?
A: > 1020 µg/mL

Q: What about the MIC50 (Porphyromonas) of the same compound?
A: 512 µg/mL (≈ 833 µM)

Q: And the MIC90 (Porphyromonas)?
A: > 1020 µg/mL

Q: And the MIC50 (Porphyromonas uenonis)?
A: 512 µg/mL (≈ 833 µM)

Q: What about the MIC90 (Porphyromonas uenonis) of the same compound?
A: > 1020 µg/mL

Q: What about the MIC50 (Prevotella corporis) of the same compound?
A: 512 µg/mL (≈ 833 µM)

Q: What about the MIC90 (Prevotella corporis) of the same compound?
A: 1020 µg/mL (≈ 1670 µM)

Q: And the MIC50 [4]?
A: 128 µg/mL (≈ 208 µM)

Q: What about the MIC90 [4] of the same compound?
A: 128 µg/mL (≈ 208 µM)

Q: And the MIC50 [5]?
A: 256 µg/mL (≈ 416 µM)

Q: What about the MIC90 [5] of the same compound?
A: 1020 µg/mL (≈ 1670 µM)

Q: What about the MIC50 (Clostridium beijerinckii) of the same compound?
A: 256 µg/mL (≈ 416 µM)

Q: And the MIC90 (Clostridium beijerinckii)?
A: 1020 µg/mL (≈ 1670 µM)

Q: What about the MIC50 (Clostridium butyricum) of the same compound?
A: 256 µg/mL (≈ 416 µM)

Q: What about the MIC90 (Clostridium butyricum) of the same compound?
A: 1020 µg/mL (≈ 1670 µM)

Q: What about the MIC50 (Clostridium cadaveris) of the same compound?
A: 256 µg/mL (≈ 416 µM)

Q: What about the MIC90 (Clostridium cadaveris) of the same compound?
A: 1020 µg/mL (≈ 1670 µM)

Q: And the MIC50 (Clostridium disporicum)?
A: 256 µg/mL (≈ 416 µM)

Q: What about the MIC90 (Clostridium disporicum) of the same compound?
A: 1020 µg/mL (≈ 1670 µM)

Q: What about the MIC50 (Clostridium fallax) of the same compound?
A: 256 µg/mL (≈ 416 µM)

Q: And the MIC90 (Clostridium fallax)?
A: 1020 µg/mL (≈ 1670 µM)

Q: What about the MIC50 (Tissierella praeacuta) of the same compound?
A: 256 µg/mL (≈ 416 µM)

Q: And the MIC90 (Tissierella praeacuta)?
A: 1020 µg/mL (≈ 1670 µM)

Q: What about the MIC50 [6] of the same compound?
A: 256 µg/mL (≈ 416 µM)

Q: What about the MIC90 [6] of the same compound?
A: 1020 µg/mL (≈ 1670 µM)

Q: And the MIC50 (Clostridium scindens)?
A: 256 µg/mL (≈ 416 µM)

Q: And the MIC90 (Clostridium scindens)?
A: 1020 µg/mL (≈ 1670 µM)

Q: What about the MIC50 (Clostridium sp.) of the same compound?
A: 256 µg/mL (≈ 416 µM)

Q: And the MIC90 (Clostridium sp.)?
A: 1020 µg/mL (≈ 1670 µM)

Q: And the MIC50 (Clostridium spiroforme)?
A: 256 µg/mL (≈ 416 µM)

Q: And the MIC90 (Clostridium spiroforme)?
A: 1020 µg/mL (≈ 1670 µM)

Q: And the MIC50 (Clostridium sporogenes)?
A: 256 µg/mL (≈ 416 µM)

Q: What about the MIC90 (Clostridium sporogenes) of the same compound?
A: 1020 µg/mL (≈ 1670 µM)

Q: What about the MIC50 (Clostridium subterminale) of the same compound?
A: 256 µg/mL (≈ 416 µM)

Q: What about the MIC90 (Clostridium subterminale) of the same compound?
A: 1020 µg/mL (≈ 1670 µM)

Q: What about the MIC50 (Clostridium symbiosum) of the same compound?
A: 256 µg/mL (≈ 416 µM)

Q: What about the MIC90 (Clostridium symbiosum) of the same compound?
A: 1020 µg/mL (≈ 1670 µM)

Q: What about the MIC50 (Clostridium tertium) of the same compound?
A: 256 µg/mL (≈ 416 µM)

Q: And the MIC90 (Clostridium tertium)?
A: 1020 µg/mL (≈ 1670 µM)

Q: And the MIC50 (Schaalia meyeri)?
A: 128 µg/mL (≈ 208 µM)

Q: What about the MIC90 (Schaalia meyeri) of the same compound?
A: 1020 µg/mL (≈ 1670 µM)

Q: What about the MIC50 (Actinomyces viscosus) of the same compound?
A: 128 µg/mL (≈ 208 µM)

Q: What about the MIC90 (Actinomyces viscosus) of the same compound?
A: 1020 µg/mL (≈ 1670 µM)

Q: And the MIC50 (Bifidobacterium breve)?
A: 128 µg/mL (≈ 208 µM)

Q: And the MIC90 (Bifidobacterium breve)?
A: 1020 µg/mL (≈ 1670 µM)

Q: What about the MIC50 (Bifidobacterium dentium) of the same compound?
A: 128 µg/mL (≈ 208 µM)

Q: And the MIC90 (Bifidobacterium dentium)?
A: 1020 µg/mL (≈ 1670 µM)

Q: What about the MIC50 [7] of the same compound?
A: 128 µg/mL (≈ 208 µM)

Q: And the MIC90 [7]?
A: 1020 µg/mL (≈ 1670 µM)

Q: And the MIC50 [8]?
A: 128 µg/mL (≈ 208 µM)

Q: What about the MIC90 [8] of the same compound?
A: 1020 µg/mL (≈ 1670 µM)

Q: And the MIC50 (Eggerthella lenta)?
A: 128 µg/mL (≈ 208 µM)

Q: What about the MIC90 (Eggerthella lenta) of the same compound?
A: 1020 µg/mL (≈ 1670 µM)

Q: And the MIC50 (Eubacterium callanderi)?
A: 128 µg/mL (≈ 208 µM)

Q: What about the MIC90 (Eubacterium callanderi) of the same compound?
A: 1020 µg/mL (≈ 1670 µM)

Q: And the MIC50 (Eubacterium limosum)?
A: 128 µg/mL (≈ 208 µM)

Q: And the MIC90 (Eubacterium limosum)?
A: 1020 µg/mL (≈ 1670 µM)

Q: And the MIC50 (Eubacterium saburreum)?
A: 128 µg/mL (≈ 208 µM)

Q: What about the MIC90 (Eubacterium saburreum) of the same compound?
A: 1020 µg/mL (≈ 1670 µM)

Q: And the MIC50 [9]?
A: 128 µg/mL (≈ 208 µM)

Q: What about the MIC90 [9] of the same compound?
A: 1020 µg/mL (≈ 1670 µM)

Q: What about the MIC50 [10] of the same compound?
A: 128 µg/mL (≈ 208 µM)

Q: And the MIC90 [10]?
A: 1020 µg/mL (≈ 1670 µM)

Q: What about the MIC50 [11] of the same compound?
A: 128 µg/mL (≈ 208 µM)

Q: What about the MIC90 [11] of the same compound?
A: 512 µg/mL (≈ 833 µM)

Q: What about the MIC50 (Ruminococcus gnavus) of the same compound?
A: 128 µg/mL (≈ 208 µM)

Q: What about the MIC90 (Ruminococcus gnavus) of the same compound?
A: 512 µg/mL (≈ 833 µM)

Q: What about the MIC50 (Ruminococcus lactaris) of the same compound?
A: 128 µg/mL (≈ 208 µM)

Q: What about the MIC90 (Ruminococcus lactaris) of the same compound?
A: 512 µg/mL (≈ 833 µM)
